{"source": "patent US8389513B2", "about": "“2-amino-5,5-difluoro-5,6-dihydro-4H-[1,3]oxazin-4-yl)-phenyl]-amides” (Hoffmann-La Roche Inc., priority 2009, dated 2013)", "test": "GSH human adduct formation in vitro", "format": "in vitro ADME", "set-up": "key: NF = in vitro no significant adduct formation relative to control", "settings": "relative to control"}
{"compound": "C[C@]1(c2cc(NC(=O)c3ncc(C(F)(F)F)cc3Cl)ccc2F)N=C(N)OCC1(F)F", "note": "[Example 5, 3-Chloro-5-trifluoromethyl-pyridine-2-carboxylic acid [3-((R)-2-amino-5,5-difluoro-4-methyl-5,6-dihydro-4H-[1,3]oxazin-4-yl)-4-fluoro-phenyl]-amide]", "values": [{"measurement": "GSH human, adduct formation", "value": "NF"}]}
